Measurements reported in the CheMixHub viscosity set.

Assay: xn = mol fraction of the nth substance listed
Conditions: 100 kPa

CCCCCCCCCCC + CCCCCCCCCCO
viscosity [mPa·s]
Conditions | x1 = 0.1003 | x1 = 0.2003 | x1 = 0.3005 | x1 = 0.3972 | x1 = 0.4989 | x1 = 0.5997 | x1 = 0.7007 | x1 = 0.8 | x1 = 0.8987
293.15 K | 10.47 | 7.7 | 5.667 | 4.374 | 3.193 | 2.542 | 1.992 | 1.626 | 1.378
298.15 K | 8.685 | 6.471 | 4.833 | 3.775 | 2.8 | 2.254 | 1.793 | 1.486 | 1.256
303.15 K | 7.267 | 5.479 | 4.152 | 3.283 | 2.477 | 2.015 | 1.628 | 1.368 | 1.154
308.15 K | 6.125 | 4.678 | 3.591 | 2.873 | 2.202 | 1.814 | 1.508 | 1.252 | 1.06
313.15 K | 5.2 | 4.018 | 3.127 | 2.533 | 1.97 | 1.644 | 1.376 | 1.149 | 0.979
318.15 K | 4.447 | 3.475 | 2.741 | 2.26 | 1.773 | 1.518 | 1.256 | 1.058 | 0.908
323.15 K | 3.825 | 3.02 | 2.418 | 2.006 | 1.655 | 1.382 | 1.152 | 0.975 | 0.846

CCCCCCCCCCC + CCCCCCCCCO
viscosity [mPa·s]
Conditions | x1 = 0.1008 | x1 = 0.2004 | x1 = 0.2999 | x1 = 0.3992 | x1 = 0.5014 | x1 = 0.5978 | x1 = 0.6993 | x1 = 0.7958 | x1 = 0.9
293.15 K | 8.362 | 6.114 | 4.688 | 3.479 | 2.709 | 2.208 | 1.803 | 1.531 | 1.326
298.15 K | 6.989 | 5.181 | 4.013 | 3.028 | 2.391 | 1.972 | 1.634 | 1.419 | 1.216
303.15 K | 5.885 | 4.422 | 3.464 | 2.653 | 2.124 | 1.777 | 1.529 | 1.296 | 1.117
308.15 K | 4.99 | 3.802 | 3.012 | 2.342 | 1.904 | 1.613 | 1.391 | 1.185 | 1.03
313.15 K | 4.264 | 3.291 | 2.636 | 2.084 | 1.718 | 1.5 | 1.271 | 1.09 | 0.956
318.15 K | 3.665 | 2.868 | 2.326 | 1.867 | 1.561 | 1.367 | 1.164 | 1.004 | 0.889
323.15 K | 3.17 | 2.503 | 2.066 | 1.685 | 1.461 | 1.249 | 1.07 | 0.928 | 0.826

CCCCCCCCCCC + CCCCCCCCO
viscosity [mPa·s]
Conditions | x1 = 0.0994 | x1 = 0.2003 | x1 = 0.2994 | x1 = 0.3986 | x1 = 0.498 | x1 = 0.5983 | x1 = 0.6948 | x1 = 0.7982 | x1 = 0.899
293.15 K | 6.831 | 5.141 | 3.839 | 3.004 | 2.374 | 1.965 | 1.669 | 1.463 | 1.271
298.15 K | 5.749 | 4.369 | 3.31 | 2.622 | 2.109 | 1.77 | 1.542 | 1.349 | 1.164
303.15 K | 4.874 | 3.746 | 2.878 | 2.322 | 1.929 | 1.622 | 1.402 | 1.233 | 1.071
308.15 K | 4.161 | 3.23 | 2.519 | 2.063 | 1.725 | 1.473 | 1.281 | 1.132 | 0.987
313.15 K | 3.577 | 2.805 | 2.223 | 1.847 | 1.559 | 1.341 | 1.175 | 1.043 | 0.915
318.15 K | 3.091 | 2.455 | 1.978 | 1.67 | 1.413 | 1.224 | 1.079 | 0.963 | 0.848
323.15 K | 2.694 | 2.167 | 1.774 | 1.507 | 1.286 | 1.123 | 0.996 | 0.892 | 0.792
